# Columns and labels:
# [1] = Brain levels of glutathione following oral administration; type: in vivo; details: C57BL/6 mice, 100 mg/kg oral, 4 hours; for glutathione in the brain: brain tissue
# Experimental: A compound of the invention was administered orally to C57BL/6 mice at either 10 or 100 mg/kg. Brain samples were collected at 0.25, 0.50, 1, 2 and 4 hours following the oral administration. Levels of NAC and glutathione were quantified in the brain samples using liquid chromatography-mass spectrometry (LC-MS/MS).
# System xc− = target: T1, System xc− (Homo sapiens, UniProt Q9UPY5); assay: 3H-glutamate release from human glial cells from brain astrocytoma (1321N1); type: cell-based; details: at 3 hours, 1321N1 cells
# T1 construct: in vitro culture system of human glial cells from brain astrocytoma (1321N1); endogenous in cells; host or cells: 1321N1 human astrocytoma cells
# T1 sequence (Q9UPY5 1-501): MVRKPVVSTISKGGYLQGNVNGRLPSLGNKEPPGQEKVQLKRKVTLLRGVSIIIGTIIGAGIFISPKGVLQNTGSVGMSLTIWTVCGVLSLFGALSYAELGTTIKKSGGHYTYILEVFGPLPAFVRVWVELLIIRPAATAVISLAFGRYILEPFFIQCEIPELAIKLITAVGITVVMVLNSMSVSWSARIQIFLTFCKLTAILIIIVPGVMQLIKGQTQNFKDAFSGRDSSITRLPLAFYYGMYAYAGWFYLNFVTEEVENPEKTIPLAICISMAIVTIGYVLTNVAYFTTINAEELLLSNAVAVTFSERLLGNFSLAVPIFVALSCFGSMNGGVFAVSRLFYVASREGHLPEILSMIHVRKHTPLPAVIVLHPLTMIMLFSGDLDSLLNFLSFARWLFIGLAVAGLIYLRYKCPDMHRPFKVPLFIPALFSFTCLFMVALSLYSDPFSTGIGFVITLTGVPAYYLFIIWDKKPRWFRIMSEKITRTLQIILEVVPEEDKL
# T1 sequence (P08195 1-529 partner): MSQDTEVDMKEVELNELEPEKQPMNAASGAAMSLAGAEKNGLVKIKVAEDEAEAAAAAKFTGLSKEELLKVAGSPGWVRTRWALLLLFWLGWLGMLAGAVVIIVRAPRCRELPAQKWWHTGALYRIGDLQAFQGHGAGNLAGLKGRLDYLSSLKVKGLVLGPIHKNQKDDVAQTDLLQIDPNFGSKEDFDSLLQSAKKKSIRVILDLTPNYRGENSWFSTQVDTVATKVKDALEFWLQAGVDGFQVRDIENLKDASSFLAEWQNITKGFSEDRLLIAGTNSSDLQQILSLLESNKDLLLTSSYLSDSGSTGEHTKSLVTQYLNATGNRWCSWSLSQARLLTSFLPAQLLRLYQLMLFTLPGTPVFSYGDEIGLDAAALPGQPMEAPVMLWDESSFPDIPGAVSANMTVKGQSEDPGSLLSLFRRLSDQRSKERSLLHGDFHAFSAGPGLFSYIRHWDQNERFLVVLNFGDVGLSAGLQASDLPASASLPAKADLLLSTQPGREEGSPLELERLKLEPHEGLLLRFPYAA
# Experimental: This assay also uses the cell culture system of human glial cells from brain astrocytoma (1321N1) described above. Initially, cells are washed with HBBSS, and ^3H-glutamate is added (PerkinElmer: 1 mCi/mL stock solution is diluted (30 μL+500 HBBSS) and 10 μL of diluted radiolabel is added to each well). Following a 1 hour incubation to load the cells with the labeled glutamate, the cells are washed again with HBBSS, and the drug is added. At 30, 90, and 180 minutes, 50 μL of extracellular media is sampled from each well and is measured using a Beckman LS 6500 scintillation counter.
# Rats [2] = assay: Prepulse inhibition experiment (MK-801-induced deficit); type: in vivo; details: MK-801 0.1 mg/kg SC, MK-801 + vehicle control about 16%
# Experimental: Rats were placed on a platform in a sound attenuating chamber (10.875″×14″×19.5″; Hamilton Kinder, CA) that rested on a motion sensing plate. During all sessions, the background noise was held constant at 60 dB. A matching session was conducted to determine the magnitude of the average startle response for each rat. This session consisted of a five minute habituation period followed by 20 trials; 17 trials involved the presentation of a single auditory stimulus (pulse stimulus; 50 dB above the background noise) and three trials in which a pre-pulse stimulus (12 db above background) was presented 100 ms before the pulse auditory stimulus. Rats were then assigned into the various treatment groups so that the magnitude of the startle response was equivalent across all groups. Two days later, a testing session was conducted to assess sensorimotor gating. One hour prior to testing, rats received a prodrug (0-100 mg/kg, P.O.) and 55 minutes later acute MK-801 maleate (0.1 mg/kg, SC). The testing session consisted of a five minute habituation period, after which rats received 58 discrete trials; 26 trials during which the pulse stimulus (50 db above background) was presented alone, eight trials each in which the pulse stimulus was preceded by a prepulse stimulus (5, 10, or 15 db above background) and eight background trials with no pulse (No stimulus; background noise only). The first six pulse alone trials were not included in the average startle stimulus to achieve a relatively stable level of startle reactivity. All startle responses were normalized to vehicle control, and the percent of prepulse inhibition was determined as 100-(average prepulse startle response/average startle stimulus alone)*100.
# Rats [3] = assay: Elevated-plus maze; type: in vivo; details: for time spent on the open arms: one hour prior to testing, five minute session
# Experimental: Rats were tested in a standard elevated plus maze; testing occurred in a dimly illuminated room using only two lights mounted over the maze. Animals were allowed to habituate to the room for at least one hour prior to treatment. One hour prior to testing, rats received a compound of the present invention (0-30 mg/kg, P.O.). For testing, the rat was placed in the elevated plus maze for five minutes, alternating the starting position between facing an open arm and facing a closed arm. The session was recorded and an observer blind to treatment recorded the number of explorations, entries and time spent in the open arm. Explorations were defined as the rat placing two feet into an open arm without fully entering said arm. Entries were defined as the rat placing all four feet in an open arm. Time of entry in the open arm was recorded from the time the rat placed four feet in the open arm until two of the rats' feet entered the open square.
# [4] = 10 mg/kg P.O. one hour prior to testing
increase in 3H-glutamate release (System xc−; 300 μM),increase in 3H-glutamate release (System xc−; 100 μM),SMILES,"glutathione in the brain, times that of the vehicle [1]",glutathione in the brain [1],% prepulse inhibition (Rats [2]; [4]),increase of time on the open arms over control (Rats [3]; 10 mg/kg PO),time spent on the open arms (Rats [3]; 10 mg/kg PO),% prepulse inhibition (Rats [2]; 3 mg/kg P.O. one hour prior to testing),increase of time spent on the open arm (Rats [3]; 10 or 30 mg/kg PO),time spent on the open arms (Rats [3]; 10 or 30 mg/kg PO)
approximately 100%,,"CCOC(=O)[C@H](CSC(=O)c1ccc(C)cc1)NC(C)=O [Pro-4051, Ethyl (2R)-2-acetamido-3-(4-methylbenzoylsulfanyl)propanoate]",about 1.05 times,about 1960 nmol/g,about 46%,~150%,around 48 seconds,,,
,approximately 40%,"CCOC(=O)[C@H](CSC(=O)C1CSC(=O)N1)NC(C)=O (stereo partly drawn) [Pro-4047, Ethyl (2R)-2-acetamido-3-(2-oxo-1,3-thiazolidine-4-carbonylsulfanyl) propanoate]",,,,not a significant increase over control,around 22 seconds,about 23%,,
approximately 135%,,"CC(=O)N[C@@H](CSC(=O)c1ccc(C)cc1)C(=O)O [Pro-2023, (2R)-2-Acetylamino-3-(4-methyl-benzoylsulfanyl)-propionic acid]",about 2 times,about 200 nmol/g,about 30%,,,,about 100%,around 27 seconds
